Read-outs that look alike come from different tables or passages of the source. Starred links: 1 amine or outer side, 2 acyl side, 3 side chain; linkers in the order of their positions; H or OH if unused. Non-standard residues stand in square brackets, D forms with d. Residues, ends and D or L forms follow the SMILES beside them. Groups on a side chain read outwards from the residue. ξ: configuration not given here. *: point of attachment. C18 diacid = O=C(O)CCCCCCCCCCCCCCCCC(=O)*; γGlu = O=C(O)[C@H](CCC(=O)[*:2])N[*:1]; NMeY = CN[C@@H](Cc1ccc(O)cc1)C(=O)O; Palmitoyl = CCCCCCCCCCCCCCCC(=O)*; αMeF = C[C@](N)(Cc1ccccc1)C(=O)O; ξIva = CCC(C)(N)C(=O)O; AEEA = NCCOCCOCC(=O)O; Aib = CC(C)(N)C(=O)O
Columns and labels:
hNPY2R = biological target: T1, hNPY2R (Homo sapiens, UniProt P49146); assay: hNPY2R CreLuc reporter gene assay in 0.5% and 100% plasma; type: cell-based; conditions: CreLuc reporter gene assay
T1 construct: expressed in transfected cells; host or cells: HEK-293 cells carrying a CRE-luciferase reporter gene
T1 sequence (P49146 1-381): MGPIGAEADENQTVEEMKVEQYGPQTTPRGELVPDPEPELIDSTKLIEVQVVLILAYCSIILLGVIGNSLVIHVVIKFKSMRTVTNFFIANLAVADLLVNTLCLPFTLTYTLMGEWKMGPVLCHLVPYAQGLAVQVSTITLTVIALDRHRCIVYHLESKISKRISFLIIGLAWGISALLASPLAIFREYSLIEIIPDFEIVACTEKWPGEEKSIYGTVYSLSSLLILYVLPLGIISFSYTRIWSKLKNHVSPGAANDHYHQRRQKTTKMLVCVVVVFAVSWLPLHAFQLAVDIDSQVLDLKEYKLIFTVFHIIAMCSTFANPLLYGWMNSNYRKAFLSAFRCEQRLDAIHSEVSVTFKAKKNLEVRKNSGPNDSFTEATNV
How it was run: (§1)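 HEK-293 cells co-expressing GLP-1 or NPY2 receptor and CHO cells expressing GIP receptor, each carrying a CRE-driven luciferase reporter, were stimulated with peptides for 4 hours at 37 °C. Luminescence was read after Bright-Glo addition. EC50 came from 8-point, four-decade curves fitted by variable-slope non-linear regression.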

hGLP1R = biological target: T2, hGLP1R (Homo sapiens, UniProt P43220); assay: hGLP1R CreLuc reporter gene assay in 0.5% and 100% plasma; type: cell-based; conditions: CreLuc reporter gene assay, 0.5% human plasma; read-out: hGLP1R 0.5% hP
T2 construct: expressed in transfected cells; host or cells: HEK-293 cells carrying a CRE-luciferase reporter gene
How it was run: as §1

[1] = Effect on acute food intake in normal NMRI mice; type: in vivo; conditions: 30 nmol/kg subcutaneously once, normalized to vehicle group, male NMRI mice
Protocol: Example 4: Effect on Acute Food Intake in Normal NMRI Mice
Male NMRI mice were obtained from Janvier (Janvier Labs, France) or from Charles River (Charles River Research Models & Services Germany GmbH) at the age of 3 weeks. The animals get a microchip (Datamars, Slim Microchip T-SL) for individual identification after delivery. They were housed with 4 mice per cage under a 12/12 dark-light cycle, light off at 3 p.m. Room temperature was controlled to 21° C. +/−1° C. and humidity 60%+/−20%. Mice had ad libitum access to regular rodent chow (KLIBA Nafag 3040 or Altromin 1324, Brogaarden, Denmark) and tap water.
Latest transfer into the HM2-System of MBRose, Denmark (real-time monitoring system of food- and water intake) of the animals 5 days before study start, to allow acclimatization to experimental conditions. As the animals were uniquely identified with the microchips, each individual animal was identified by its own microchip upon entry and exit from the food channel via antennae. Randomization of the mice for each study group (n=8; age earliest 6 weeks old) was based on food intake (middle of last three days 24 h-Intervall) and bodyweight directly before start of the study. A vehicle treated (50 mM phosphate buffer pH7.4 with 3.5% Mannitol) group was included in each experiment. To have the same nutrition standard for each animal the food access was locked eight hours before dark phase. One hour before night, the animals were once treated subcutaneously with the test peptide. Food intake was reported hourly for a period of 24 h.

[2] = Mouse PK after intravenous application; type: in vivo; conditions: mean residence time, intravenous 30-60 nmol/kg, male NMRI mice
How it was run: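 Male NMRI mice (30–40 g) received 30-60 nmol/kg peptide by tail-vein injection, dissolved in 50 mM phosphate buffer (pH 7.4)/3.5% mannitol. Saphenous blood was sampled up to 56 hours post-dose and EDTA plasma analysed by LC-MS. PK parameters came from non-compartmental analysis.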

hGIPR = biological target: T3, hGIPR (Homo sapiens, UniProt P48546); assay: hGIPR CreLuc reporter gene assay in 0.5% and 100% plasma; type: cell-based; conditions: CreLuc reporter gene assay
T3 construct: expressed in transfected cells; host or cells: CHO cells carrying a CRE-luciferase reporter gene
T3 sequence (P48546 22-466): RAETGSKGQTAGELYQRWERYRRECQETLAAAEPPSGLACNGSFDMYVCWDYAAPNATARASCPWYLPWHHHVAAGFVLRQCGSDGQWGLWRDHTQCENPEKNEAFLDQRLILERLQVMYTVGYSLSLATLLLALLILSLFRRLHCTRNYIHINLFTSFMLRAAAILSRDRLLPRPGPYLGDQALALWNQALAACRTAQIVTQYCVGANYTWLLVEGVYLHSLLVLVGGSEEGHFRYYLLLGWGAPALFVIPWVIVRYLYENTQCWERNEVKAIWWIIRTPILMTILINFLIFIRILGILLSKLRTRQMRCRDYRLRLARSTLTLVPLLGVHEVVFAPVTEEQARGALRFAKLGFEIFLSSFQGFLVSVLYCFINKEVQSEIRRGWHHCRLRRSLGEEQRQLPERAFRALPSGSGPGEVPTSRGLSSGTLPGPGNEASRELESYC
How it was run: as §1

[3] = Solubility in 0.1 M phosphate buffer at pH 7; type: physicochemical
Protocol: Peptides (as TFA-salts) were weighed out in a filter unit (Mini-UniPrep Syringieless Filter 0.45 prn. Whatman PVDF), and 0.1 M phosphate buffer at pH 7 was added to achieve 10 mg/mL final peptide concentration. The peptides were dissolved by shaking the filter units horizontally at 600 rpm for 2 hours at room temperature. Samples were then filtered to remove any insoluble particles. Controls were prepared by weighing out the corresponding peptide solid material and dissolving it in an appropriate vehicle (e.g. ACN:H2O) to a final concentration of 1 mg/mL. Both, the control and sample were analyzed by reversed phase chromatography. The area under the peak of the sample was compared to the control and the solubility was calculated based on that ratio. The pH was measured and recorded for each sample.

[4] = 0.5% human plasma, read-out: hGIPR 0.5% hP
[5] = 100% human plasma, read-out: hGIPR 100% hP

T2 sequence (P43220 24-463): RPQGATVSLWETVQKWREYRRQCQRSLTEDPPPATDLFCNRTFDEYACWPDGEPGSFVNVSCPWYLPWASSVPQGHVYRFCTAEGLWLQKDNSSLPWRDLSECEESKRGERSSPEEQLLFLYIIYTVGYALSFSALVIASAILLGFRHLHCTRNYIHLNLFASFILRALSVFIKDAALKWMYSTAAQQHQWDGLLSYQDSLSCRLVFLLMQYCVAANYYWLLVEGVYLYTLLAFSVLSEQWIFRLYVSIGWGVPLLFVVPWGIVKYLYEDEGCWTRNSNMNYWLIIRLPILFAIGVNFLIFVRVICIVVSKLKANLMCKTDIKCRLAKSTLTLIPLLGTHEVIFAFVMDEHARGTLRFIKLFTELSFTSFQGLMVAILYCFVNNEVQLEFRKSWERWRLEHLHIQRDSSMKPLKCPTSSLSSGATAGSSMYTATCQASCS

Row | Compound | EC50 (hNPY2R; 100% human plasma, read-out: hNPY2R 100% hP) | EC50 (hGLP1R) | Acute Food Intake 24 h 30 nmol/kg [% CTL] [1] | MRT ([2]; plasma) | EC50 (hGIPR; [4]) | EC50 (hGIPR; [5]) | MRT ([2]; in vivo) | solubility [3] | solubility ([3]; phosphate buffer) | EC50 (hNPY2R; 0.5% human plasma, read-out: hNPY2R 0.5% hP)
1 | CC[C@H](C)[C@H](NC(=O)[C@H](CC(C)C)NC(=O)[C@H](Cc1c[nH]c2ccccc12)NC(=O)[C@H](CCC(N)=O)NC(=O)[C@@H](NC(=O)[C@H](Cc1ccccc1)NC(=O)[C@H](C)NC(=O)C(C)(C)NC(=O)[C@H](CCC(N)=O)NC(=O)[C@H](C)NC(=O)[C@H](CCC(N)=O)NC(=O)[C@H](CCCCN)NC(=O)[C@H](CCC(=O)O)NC(=O)[C@H](CC(C)C)NC(=O)C(C)(C)NC(=O)[C@@H](NC(=O)[C@H](CO)NC(=O)[C@H](Cc1ccc(O)cc1)NC(=O)[C@H](CC(=O)O)NC(=O)[C@H](CO)NC(=O)[C@@H](NC(=O)[C@H](Cc1ccccc1)NC(=O)[C@@H](NC(=O)CNC(=O)[C@H](CCC(=O)O)NC(=O)C(C)(C)NC(=O)[C@@H](N)Cc1ccc(O)cc1)[C@@H](C)O)[C@@H](C)O)[C@@H](C)CC)C(C)C)C(=O)N[C@@H](CCCCNC(=O)[C@@H](N)CCCCNC(=O)CC[C@H](NC(=O)CC[C@H](NC(=O)CC[C@H](NC(=O)CC[C@H](NC(=O)CC[C@H](NC(=O)CC[C@H](NC(=O)CCCCCCCCCCCCCCCCC(=O)O)C(=O)O)C(=O)O)C(=O)O)C(=O)O)C(=O)O)C(=O)O)C(=O)NCC(=O)NCC(=O)N1CCC[C@H]1C(=O)N[C@@H](CO)C(=O)N[C@@H](CCC(=O)O)C(=O)NCC(=O)N[C@@H](C)C(=O)N[C@@H](CO)C(=O)N[C@@H](CC(C)C)C(=O)N[C@@H](CCCNC(=N)N)C(=O)N[C@@H](Cc1c[nH]cn1)C(=O)N[C@@H](Cc1ccc(O)cc1)C(=O)N[C@@H](Cc1ccc(O)cc1)C(=O)N[C@@H](CC(N)=O)C(=O)N[C@@H](Cc1c[nH]c2ccccc12)C(=O)N[C@@H](CC(C)C)C(=O)N[C@H](C(=O)N[C@@H](CCCNC(=N)N)C(=O)N[C@@H](CCC(N)=O)C(=O)N[C@@H](CCCNC(=N)N)C(=O)N[C@@H](Cc1ccc(O)cc1)C(N)=O)[C@@H](C)O [Compound 265, Y-Aib-E-G-T-F-T-S-D-Y-S-I-Aib-L-E-K-Q-A-Q-Aib-A-F-V-Q-W-L-I-K(1,3)-GGPSEGASLRHYYNWLTRQRY-NH2.C18DA-gGlu-gGlu-gGlu-gGlu-gGlu-gGlu-eLys(1,2)] | 23000 pM | 100 pM | 50 % CTL | 8.5 h | 390 pM | 790 pM | – | – | – | –
2 | CCCCCCCCCCCCCCCC(=O)NCC(=O)NCC(=O)NCC(=O)NCC(=O)NCCCC[C@H](NC(=O)[C@H](CC(=O)O)NC(=O)[C@H](CO)NC(=O)[C@@H](NC(=O)[C@](C)(Cc1ccccc1)NC(=O)[C@@H](NC(=O)CNC(=O)[C@H](CCC(=O)O)NC(=O)C(C)(C)NC(=O)[C@H](Cc1ccc(O)cc1)NC)[C@@H](C)O)[C@@H](C)O)C(=O)N[C@@H](CO)C(=O)N[C@H](C(=O)NC(C)(C)C(=O)N[C@@H](CC(C)C)C(=O)N[C@@H](CCC(=O)O)C(=O)N[C@@H](CCCCN)C(=O)N[C@@H](CCC(N)=O)C(=O)N[C@@H](CCCNC(=N)N)C(=O)N[C@@H](CCC(N)=O)C(=O)NC(C)(CC)C(=O)N[C@@H](CCC(=O)O)C(=O)N[C@@H](Cc1ccccc1)C(=O)N[C@H](C(=O)N[C@@H](CCCNC(=N)N)C(=O)N[C@@H](Cc1c[nH]cn1)C(=O)N[C@@H](CC(C)C)C(=O)N[C@@H](CC(C)C)C(=O)N[C@@H](CC(N)=O)C(=O)N[C@@H](CCCCN)C(=O)NC(C)(C)C(=O)N[C@H](C(=O)N[C@@H](CCCNC(=N)N)C(=O)N[C@@H](CCC(N)=O)C(=O)N[C@@H](CCCNC(=N)N)C(=O)N[C@@H](Cc1ccc(O)cc1)C(N)=O)[C@@H](C)O)C(C)C)[C@@H](C)CC (stereo partly drawn) [Ref. 1, NMeY-Aib-E-G-T-aMeF-T-S-D-K(1,3)-S-I-Aib-L-E-K-Q-R-Q-Iva-E-F-V-R-H-L-L-N-K-Aib-T-R-Q-R-Y-NH2.C16A-G-G-G-G(1,2), reference compound] (H-[NMeY][Aib]EGT[αMeF]TSDK([Gly-Gly-Gly-Gly-Palmitoyl])SI[Aib]LEKQRQ[ξIva]EFVRHLLNK[Aib]TRQRY-NH2) | – | – | – | – | – | – | < 1 h | < 1000 µg/mL | – | –
3 | CC[C@H](C)[C@H](NC(=O)[C@H](CO)NC(=O)[C@H](CCCCNC(=O)CNC(=O)CNC(=O)CNC(=O)CNC(=O)CCCCCCCCCCCCCCCCC(=O)O)NC(=O)[C@H](CC(=O)O)NC(=O)[C@H](CO)NC(=O)[C@@H](NC(=O)[C@](C)(Cc1ccccc1)NC(=O)[C@@H](NC(=O)CNC(=O)[C@H](CCC(=O)O)NC(=O)C(C)(C)NC(=O)[C@H](Cc1ccc(O)cc1)NC)[C@@H](C)O)[C@@H](C)O)C(=O)NC(C)(C)C(=O)N[C@@H](CC(C)C)C(=O)N[C@@H](CCC(=O)O)C(=O)N[C@@H](CCCCN)C(=O)N[C@@H](CCC(N)=O)C(=O)N[C@@H](CCCNC(=N)N)C(=O)N[C@@H](CCC(N)=O)C(=O)NC(C)(CC)C(=O)N[C@@H](CCC(=O)O)C(=O)N[C@@H](Cc1ccccc1)C(=O)N[C@H](C(=O)N[C@@H](CCCNC(=N)N)C(=O)N[C@@H](Cc1c[nH]cn1)C(=O)N[C@@H](CC(C)C)C(=O)N[C@@H](CC(C)C)C(=O)N[C@@H](CC(N)=O)C(=O)N[C@@H](CCCCN)C(=O)NC(C)(C)C(=O)N[C@H](C(=O)N[C@@H](CCCNC(=N)N)C(=O)N[C@@H](CCC(N)=O)C(=O)N[C@@H](CCCNC(=N)N)C(=O)N[C@@H](Cc1ccc(O)cc1)C(N)=O)[C@@H](C)O)C(C)C (stereo partly drawn) [Ref. 2, NMeY-Aib-E-G-T-aMeF-T-S-D-K(1,3)-S-I-Aib-L-E-K-Q-R-Q-Iva-E-F-V-R-H-L-L-N-K-Aib-T-R-Q-R-Y-NH2.C18DA-G-G-G-G(1,2), reference compound] (H-[NMeY][Aib]EGT[αMeF]TSDK([Gly-Gly-Gly-Gly-C18 diacid])SI[Aib]LEKQRQ[ξIva]EFVRHLLNK[Aib]TRQRY-NH2) | – | – | – | 4.3 h | – | – | – | – | < 1000 µg/mL | –
4 | H-Y[Aib]EGTFTSDYSI[Aib]LEKQAQ[Aib]EFVEWLIK([AEEA-AEEA-γGlu-γGlu-γGlu-γGlu-C18 diacid])GGPSSGASLRHYYNWLTRQRY-NH2 [Compound 145, Y-Aib-E-G-T-F-T-S-D-Y-S-I-Aib-L-E-K-Q-A-Q-Aib-E-F-V-E-W-L-I-K(1,3)-GGPSSGASLRHYYNWLTRQRY-NH2.C18DA-gGlu-gGlu-gGlu-gGlu-OEG-OEG(1,2)] | – | 310 pM | 43 % CTL | 8 h | 280 pM | 1230 pM | – | – | – | 12000 pM
